In PMC11672547, “Combination of Coevolutionary Information and Supervised Learning Enables Generation of Cyclic Peptide Inhibitors with Enhanced Potency from a Small Data Set” (ACS Central Science, 2024):
Read-outs that look alike come from different tables or passages of the source. Numbered stars: 1 amine (or outer) side, 2 acyl side, 3 side chain; on linkers, the order of the positions; unused ones are H or OH. Bridge positions count the residues as written; N and C are the ends. Peptide text beside a SMILES is read from it. TBMB = c1c(C[*:1])cc(C[*:3])cc1C[*:2]

Key:
[1] = biological target: T1, human urokinase-type plasminogen activator (huPA) (Homo sapiens, UniProt P00749); conditions: UK140 family of 31 phage-encoded bicyclic peptides; cited from earlier work
T1 construct: (UPA-LMW, Molecular Innovations, Novi, MI, USA) 1.5 nM; purchased Molecular Innovations UPA-LMW

[2] = biological target: T1, human urokinase-type plasminogen activator (huPA); test: huPA inhibition, fluorogenic enzyme activity assay (Z-Gly-Gly-Arg-AMC), Ki by Cheng-Prusoff; format: biochemical; conditions: 25 °C
Procedure: bicyclic peptides. The activity assay was performed by incubating […] huPA with 50 μM fluorogenic substrate Z-Gly-Gly-Arg-AMC (50 μM; Bachem, Bubendorf, Switzerland) and […]
NaCl, 10 mM MgCl2, 1mM CaCl2, 0.1% w/v BSA, 0.01% v/v Triton-X100 and 5% v/v DMSO.
The measurements were performed on a Tecan microplate reader (Tecan infinite 200 pro, Tecan Trading AG, Switzerland) using black microfluor 96-well plate Nunc MicroWell, (Thermo Fisher Scientific, Dreieich, Germany) The enzymatic reactions were performed at 25 °C for 30 min, under shacking with an excitation wavelength of 355 nm and an emission recording at 460 nm. The initial velocities were monitored as changes in fluorescence intensity. The sigmoidal curves were fitted to the data using the following non-linear regression equation for the inhibitory dose-response curves with variable slope (2): […]
where x is the peptide concentration, y is the residual percentage of protease activity and p is the hill slope. Half maximum inhibitory concentration (IC50) values were derived from the fitted curves from GraphPad Prism 8 8.0.0. software (GraphPad software, Inc., San Diego, California). The final Ki was subsequently determined using the Cheng-Prusoff equation (3): […]
where Km (115 μM) is the Michaelis constant for the hydrolysis of Z-Gly-Gly-Arg-AMC catalysed by huPA which has been determined by standard Michaelis-Menten equation.
Values were determined using either OriginPro 8G software (OriginLab Corporation, Northamppton, MA, USA) or GraphPad Prism 8.0.0. software (GraphPad software, Inc., San […]
Recombinant production of the catalytic domain of human urokinase-type […]
The low molecular weight (LMW) human urokinase-type plasminogen activator (huPA) comprising the truncated 23 amino acid peptide fragment of chain A (Lys136-Lys158 in […]

human thrombin = biological target: T2, human thrombin (Homo sapiens, UniProt P00734); test: Specificity determination, residual protease activity (fluorogenic substrate); format: biochemical; conditions: 25 °C, pH 7.4, Z-Gly-Gly-Arg-AMC 50 μM
T2 construct: human thrombin (IHT, Innovative Research,; purchased Innovative Research IHT
Procedure: (§1) 5% v/v DMSO. Final concentrations of serine proteases were the following: human uPA (UPA-LMW, Molecular Innovations, Novi, MI, USA) 1.5 nM, mouse uPA (MUPA-LMW, Molecular Innovations, Novi, MI, USA) 12 nM, human tPA (HTPATC; Molecular Innovations, Novi, MI, USA) 7.5 nM, mouse tPA (MTPA, Molecular Innovations, Novi, MI, USA) 6 nM, human trypsin (HTRYP, Molecular Innovations, Novi, MI, USA) 0.05 nM, human plasmin (HPLM, Molecular Innovations, Novi, MI, USA) 1.5 nM, human plasma kallikrein (IHPKA, Innovative Research, Novi, MI, USA) 0.5 nM, human thrombin (IHT, Innovative Research, Novi, MI, USA) 10 nM, and human factor XIIa (IHFXIIa, Innovative Research, Novi, MI, USA) 6 nM. Two-fold dilutions of UK970 bicyclic peptide inhibitor were prepared ranging from 1 mM to 125 nM for all the proteases. For human uPA an extra two-fold UK970 inhibitor dilution experiment was performed by using inhibitor concentrations ranging from 2000 nM to 0.12 nM. For the determination of the Ki inhibitory constants, the following fluorogenic substrates were used at final concentration of 50 μM: Z-Gly-Gly-Arg-AMC (for human uPA, murine uPA, human tPA, murine tPA, human trypsin, human thrombin and human factor XIIa; Bachem, Bubendorf, Switzerland), Z-Phe-Arg-AMC (for human plasma kallikrein; Bachem, Bubendorf, Switzerland) and H-D-Val-Leu-Lys-AMC (for human plasmin; Bachem, Bubendorf, Switzerland). The initial velocities were monitored as changes in fluorescence intensity during 30 min on a Tecan microplate reader (Tecan infinite 200 pro, Tecan Trading AG, Switzerland) using black microfluor 96-well plate Nunc MicroWell (Thermo Fisher Scientific, Dreieich, Germany). The enzymatic reactions were performed at 25 °C under shacking with an excitation wavelength of 355 nm and an emission recording at 460 nm.
(§2) Apparent equilibrium constants Kiapps values were determined by non-linear regression analyses of Vi/V0 versus [I]0 using equation (2). The final Kis were subsequently determined by correcting for the competitive effect of the substrate [S]0 using equation (3). The kinetic constants Kms for the hydrolysis of fluorogenic substrate, catalysed by each protease, were determined by standard Michaelis-Menten equation. Values were determined using either OriginPro 8G software (OriginLab Corporation, Northamppton, MA, USA) or GraphPad Prism 8.0.0. software (GraphPad software, Inc., San Diego, California). […]

murine uPA (muPA) = biological target: T3, murine uPA (muPA) (Mus musculus, UniProt P06869); test: as above; format: biochemical; conditions: 25 °C, pH 7.4, Z-Gly-Gly-Arg-AMC 50 μM
T3 construct: mouse uPA (MUPA-LMW,; purchased Molecular Innovations MUPA-LMW
Procedure: as §1, §2

human plasma kallikrein = biological target: T4, human plasma kallikrein (Homo sapiens, UniProt P03952); test: as above; format: biochemical; conditions: 25 °C, pH 7.4, Z-Phe-Arg-AMC 50 μM
T4 construct: purchased Innovative Research IHPKA
Procedure: as §1, §2

murine tPA (mtPA) = biological target: T5, murine tPA (mtPA) (Mus musculus, UniProt P11214); test: as above; format: biochemical; conditions: 25 °C, pH 7.4, Z-Gly-Gly-Arg-AMC 50 μM
T5 construct: purchased Molecular Innovations MTPA
Procedure: as §1, §2

human plasmin = biological target: T6, human plasmin (Homo sapiens, UniProt P00747); test: as above; format: biochemical; conditions: 25 °C, pH 7.4, H-D-Val-Leu-Lys-AMC 50 μM
T6 construct: Bachem; purchased Molecular Innovations HPLM
Procedure: as §1, §2

human tPA (htPA) = biological target: T7, human tPA (htPA) (Homo sapiens, UniProt P00750); test: as above; format: biochemical; conditions: 25 °C, pH 7.4, Z-Gly-Gly-Arg-AMC 50 μM
T7 construct: purchased Molecular Innovations HTPATC
Procedure: as §1, §2

human factor XIIa = biological target: T8, human factor XIIa (Homo sapiens, UniProt P00748); test: as above; format: biochemical; conditions: 25 °C, pH 7.4, Z-Gly-Gly-Arg-AMC 50 μM
T8 construct: human factor XIIa (IHFXIIa, Innovative Research,; purchased Innovative Research IHFXIIa
T8 sequence (P00748 373-615 limits assumed): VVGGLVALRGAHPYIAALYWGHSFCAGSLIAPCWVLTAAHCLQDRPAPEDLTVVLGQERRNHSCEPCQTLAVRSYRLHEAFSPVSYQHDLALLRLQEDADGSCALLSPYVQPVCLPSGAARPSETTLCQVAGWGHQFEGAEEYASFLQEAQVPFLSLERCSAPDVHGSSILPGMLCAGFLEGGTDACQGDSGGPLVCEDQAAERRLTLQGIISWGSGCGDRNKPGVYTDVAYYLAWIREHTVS
T8 sequence (P00748 20-372 partner limits assumed): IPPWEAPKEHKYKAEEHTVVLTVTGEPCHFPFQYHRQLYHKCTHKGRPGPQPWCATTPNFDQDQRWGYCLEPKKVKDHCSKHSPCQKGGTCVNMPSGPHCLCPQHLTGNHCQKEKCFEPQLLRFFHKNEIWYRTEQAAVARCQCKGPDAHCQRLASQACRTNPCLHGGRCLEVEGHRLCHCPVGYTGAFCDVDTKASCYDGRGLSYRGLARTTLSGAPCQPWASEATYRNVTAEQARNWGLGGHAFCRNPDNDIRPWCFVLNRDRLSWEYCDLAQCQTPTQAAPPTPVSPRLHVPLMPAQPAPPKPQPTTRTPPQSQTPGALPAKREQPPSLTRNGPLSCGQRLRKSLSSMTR
Procedure: as §1, §2

[3] = pH 7.4, substrate 50 μM, mean ± S.E. of at least three measurements, read-out: Ki

T7 sequence (P00750 311-562 limits assumed): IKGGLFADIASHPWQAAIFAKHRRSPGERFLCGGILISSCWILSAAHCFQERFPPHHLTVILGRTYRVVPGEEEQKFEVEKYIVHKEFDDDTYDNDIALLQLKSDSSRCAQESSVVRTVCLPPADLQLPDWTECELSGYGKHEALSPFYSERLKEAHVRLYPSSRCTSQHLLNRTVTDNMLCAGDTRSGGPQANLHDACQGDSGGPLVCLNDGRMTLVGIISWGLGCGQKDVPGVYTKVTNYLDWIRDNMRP
T7 sequence (P00750 36-310 partner limits assumed): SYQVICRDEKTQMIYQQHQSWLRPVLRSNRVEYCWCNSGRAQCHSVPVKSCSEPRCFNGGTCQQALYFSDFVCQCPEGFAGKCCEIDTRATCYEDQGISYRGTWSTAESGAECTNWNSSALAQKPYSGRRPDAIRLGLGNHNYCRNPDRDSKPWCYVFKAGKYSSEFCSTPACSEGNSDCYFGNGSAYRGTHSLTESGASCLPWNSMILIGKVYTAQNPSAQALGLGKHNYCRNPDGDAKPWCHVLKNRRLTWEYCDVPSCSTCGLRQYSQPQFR
T3 sequence (P06869 180-433 limits assumed): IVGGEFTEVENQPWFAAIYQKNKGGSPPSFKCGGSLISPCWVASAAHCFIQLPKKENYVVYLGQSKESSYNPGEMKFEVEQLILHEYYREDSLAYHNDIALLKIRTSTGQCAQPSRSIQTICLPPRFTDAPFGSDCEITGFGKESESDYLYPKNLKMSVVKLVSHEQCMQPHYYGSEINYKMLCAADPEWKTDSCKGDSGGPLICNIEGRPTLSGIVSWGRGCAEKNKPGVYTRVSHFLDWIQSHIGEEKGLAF
T3 sequence (P06869 157-178 partner limits assumed): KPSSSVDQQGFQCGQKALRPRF
T5 sequence (P11214 33-559): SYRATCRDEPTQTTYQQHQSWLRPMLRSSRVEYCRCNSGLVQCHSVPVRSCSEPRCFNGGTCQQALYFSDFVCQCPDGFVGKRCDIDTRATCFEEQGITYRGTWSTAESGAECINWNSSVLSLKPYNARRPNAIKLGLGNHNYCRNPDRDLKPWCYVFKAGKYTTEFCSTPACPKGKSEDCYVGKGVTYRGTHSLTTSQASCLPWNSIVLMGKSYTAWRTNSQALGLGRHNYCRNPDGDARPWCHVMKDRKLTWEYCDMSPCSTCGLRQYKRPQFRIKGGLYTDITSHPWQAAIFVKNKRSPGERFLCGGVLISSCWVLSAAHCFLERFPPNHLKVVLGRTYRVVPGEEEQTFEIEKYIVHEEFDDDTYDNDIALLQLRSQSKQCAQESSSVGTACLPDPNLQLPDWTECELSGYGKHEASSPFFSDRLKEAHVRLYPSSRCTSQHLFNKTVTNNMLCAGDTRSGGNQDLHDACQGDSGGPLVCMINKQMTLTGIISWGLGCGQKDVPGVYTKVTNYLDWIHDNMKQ
T4 sequence (P03952 391-638 limits assumed): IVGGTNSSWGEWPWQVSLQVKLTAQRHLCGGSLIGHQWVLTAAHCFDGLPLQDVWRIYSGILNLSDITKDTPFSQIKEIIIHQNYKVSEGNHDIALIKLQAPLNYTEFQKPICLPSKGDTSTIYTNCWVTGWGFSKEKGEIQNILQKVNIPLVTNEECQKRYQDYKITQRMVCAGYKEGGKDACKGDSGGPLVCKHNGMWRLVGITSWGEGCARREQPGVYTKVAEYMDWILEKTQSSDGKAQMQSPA
T4 sequence (P03952 20-390 partner limits assumed): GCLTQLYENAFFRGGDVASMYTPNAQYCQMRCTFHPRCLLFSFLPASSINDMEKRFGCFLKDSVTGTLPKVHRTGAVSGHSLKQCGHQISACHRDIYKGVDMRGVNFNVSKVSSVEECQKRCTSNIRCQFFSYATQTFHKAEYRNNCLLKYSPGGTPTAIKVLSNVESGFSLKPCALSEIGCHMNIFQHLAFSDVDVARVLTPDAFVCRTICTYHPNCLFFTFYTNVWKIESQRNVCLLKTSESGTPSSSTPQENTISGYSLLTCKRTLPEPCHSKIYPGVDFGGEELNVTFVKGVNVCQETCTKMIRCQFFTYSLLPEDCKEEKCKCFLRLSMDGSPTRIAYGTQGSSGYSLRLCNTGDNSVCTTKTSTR
T6 sequence (P00747 581-810 limits assumed): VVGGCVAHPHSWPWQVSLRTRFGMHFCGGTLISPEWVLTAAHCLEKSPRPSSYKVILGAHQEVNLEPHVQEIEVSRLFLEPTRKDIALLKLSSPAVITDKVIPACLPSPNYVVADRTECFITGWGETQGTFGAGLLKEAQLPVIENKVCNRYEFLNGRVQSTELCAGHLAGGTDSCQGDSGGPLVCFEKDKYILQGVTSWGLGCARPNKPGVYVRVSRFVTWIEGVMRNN
T6 sequence (P00747 97-580 partner limits assumed): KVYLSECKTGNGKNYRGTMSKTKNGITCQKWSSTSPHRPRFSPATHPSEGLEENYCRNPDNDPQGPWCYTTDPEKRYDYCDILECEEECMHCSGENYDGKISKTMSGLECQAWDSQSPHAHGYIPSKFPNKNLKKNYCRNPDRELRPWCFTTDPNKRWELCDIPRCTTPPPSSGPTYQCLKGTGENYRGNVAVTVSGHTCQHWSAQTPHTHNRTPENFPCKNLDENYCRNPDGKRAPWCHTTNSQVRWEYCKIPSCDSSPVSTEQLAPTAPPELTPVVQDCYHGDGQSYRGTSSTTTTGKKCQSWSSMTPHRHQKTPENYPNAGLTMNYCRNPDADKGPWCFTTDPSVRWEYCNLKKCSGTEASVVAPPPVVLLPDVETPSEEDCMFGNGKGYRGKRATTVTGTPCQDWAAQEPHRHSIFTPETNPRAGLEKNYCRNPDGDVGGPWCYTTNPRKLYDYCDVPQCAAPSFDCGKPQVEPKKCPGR

| SMILES | Ki [1] [µM] | Ki [2, 3] [µM] | Ki (human thrombin) [µM] | Ki (murine uPA (muPA)) [µM] | Ki (human plasma kallikrein) [µM] | Ki (murine tPA (mtPA)) [µM] | Ki (human plasmin) [µM] | Ki (human tPA (htPA)) [µM] | Ki (human factor XIIa) [µM] | Ki ([2]; pH 7.4, Z-Gly-Gly-Arg-AMC 50 μM, read-out: Ki ± S.E.) [µM] |
| --- | --- | --- | --- | --- | --- | --- | --- | --- | --- | --- |
| CC(C)[C@@H]1NC(=O)CNC(=O)[C@@H]2CSCc3cc(cc(c3)CSC[C@@H](C(=O)NCC(N)=O)NC(=O)[C@H](CO)NC(=O)[C@H](CO)NC(=O)[C@@H]3CCCN3C(=O)[C@H](CC(=O)O)NC1=O)CSC[C@H](NC(=O)[C@H](C)N)C(=O)N[C@@H](CC(N)=O)C(=O)N[C@@H](CO)C(=O)N[C@@H](CCCCN)C(=O)N[C@@H](Cc1ccccc1)C(=O)N[C@@H](CO)C(=O)NCC(=O)N2 [UK140, reference compound] (H-ACNSKFSGCGVDPSSCG-NH2; linker 2-9-16 via TBMB) | 0.2 | 0.202 |  |  |  |  |  |  |  |  |
| CC(C)[C@@H]1NC(=O)[C@H](Cc2ccccc2)NC(=O)[C@H](CCCNC(=N)N)NC(=O)[C@H](CO)NC(=O)[C@@H](NC(=O)[C@H](C)N)CSCc2cc3cc(c2)CSC[C@@H](C(=O)NCC(N)=O)NC(=O)[C@@H]2CCCN2C(=O)CNC(=O)CNC(=O)[C@H](CCCNC(=N)N)NC(=O)CNC(=O)[C@H](CCCNC(=N)N)NC(=O)[C@H](CSC3)NC(=O)[C@H](CC(=O)O)NC(=O)[C@H](C(C)C)NC1=O [UK970] (H-ACSRFVVDCRGRGGPCG-NH2; linker 2-9-16 via TBMB) |  | 0.0043 ± 0.0001 | > 1000 | > 1000 | > 1000 | > 1000 | > 1000 | > 1000 | > 1000 | 0.004 ± 0.001 |
